Data reported in patent US20220023306A1, “USE OF A PPAR-DELTA AGONIST IN THE TREATMENT OF FATTY ACID OXIDATION DISORDERS (FAOD)” (Reneo Pharmaceuticals, Inc., priority 2019, published 2022).

Tests used:
[1] = target: T1, LXRα (Homo sapiens, UniProt Q13133); assay: activity on nuclear receptor LXRα; format: cell-based
T1 sequence (Q13133 1-447): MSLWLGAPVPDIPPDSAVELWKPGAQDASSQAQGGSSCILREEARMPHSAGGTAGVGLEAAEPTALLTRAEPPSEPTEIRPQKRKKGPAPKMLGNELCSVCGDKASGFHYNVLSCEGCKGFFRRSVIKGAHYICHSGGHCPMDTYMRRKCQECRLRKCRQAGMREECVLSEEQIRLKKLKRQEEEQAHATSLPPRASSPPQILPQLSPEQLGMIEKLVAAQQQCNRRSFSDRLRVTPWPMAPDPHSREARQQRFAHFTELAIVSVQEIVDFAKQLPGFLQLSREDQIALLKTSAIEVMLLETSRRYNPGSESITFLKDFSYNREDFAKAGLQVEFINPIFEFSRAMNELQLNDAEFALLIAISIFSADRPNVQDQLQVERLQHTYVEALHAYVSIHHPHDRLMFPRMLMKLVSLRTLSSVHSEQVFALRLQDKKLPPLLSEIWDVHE

[2] = system: very long-chain acyl-CoA dehydrogenase (VLCAD); assay: VLCAD enzymatic activity in cultured fibroblasts from symptomatic VLCAD-deficient FAOD patients (ETF fluorescence reduction ACAD activity assay); format: cell-based, human; conditions: cultured fibroblasts from symptomatic patients with VLCAD deficiency
Method: Subjects. Skin biopsies for fibroblast culture are performed on a clinical basis with written informed consent from subjects and/or legal guardians. Fibroblast cells with mutations in any one of the genes and/or proteins associated with a fatty acid oxidation disorder (FAOD) ae obtained from patients' skin biopsies, while wild type (WT) fibroblast cells are obtained from healthy individuals.
Fibroblast cells, in some cases, are obtained from subjects with a confirmed diagnosis of a fatty acid oxidation disorder (FAOD) (e.g. MCAD, VLCAD, CPT1, CACT, CPT2, LCHAD, and/or mitochondrial TFP deficiencies or mutations) or they, in some cases, are purchased is available from commercial sources, e.g. from the Coriell Institute for Medical Research (403 Haddon Avenue, Camden, N.J. 08103).
Cell culture and treatments. Cells are grown in Dulbecco's Modified Eagle Medium (DMEM), Corning Life Sciences, Manassas, Va., containing high glucose levels or in DMEM devoid of glucose for 48-72 hr. Both media are supplemented with fetal bovine serum, glutamine, penicillin and/or streptomycin. In some experiments, fibroblasts are incubated with N-acetylcysteine, resveratrol, mitoQ, Trolox (a hydro-soluble analogue of vitamin E), or bezafibrate, prior to the analysis of parameters.
A PPARδ agonist compound is dissolved in phosphate buffer saline, PBS, as a stock solution. […]

[3] = system: subjects with FAOD; assay: FAOD clinical trial with Compound 1; format: in vivo, human
Method: In some embodiments, outcome measures are assessed with tests that assess exercise tolerance. In some embodiments, exercise tolerance is assessed with exercise tests. Exercise tests include, but are not limited to, submaximal treadmill, walking tests (e.g. without limitation, 6 minute; 12 minute walks), run tests, treadmill and ergometry exercise testing. In some embodiments, exercise tests are used in combination with the Borg Scale of perceived exertion. In some embodiments, exercise tests are performed according to guidelines set forth by the American Thoracic Society (ATS).
In some embodiments, stable isotope methods are used to measure in vivo residual fatty acid oxidation capacity. Enrichment of ^13CO2 only occurs by one complete round of fatty acid oxidation. A representative protocol is as follows. A fasting blood sample is obtained after an overnight fast. Prior to breakfast, a resting indirect calorimetry is measured. Subjects are then given a meal (e.g a shake) containing 17-mg/kg ^13C-oleic acid. Breath samples are collected prior to (time 0) and again hourly at 1, 2, 3, 4, 5, 6, 7, and 8 hours following the ^13C-oleic administration. ^13C in breath samples are measured as a ratio of ^13C/^12C using the Delta Plus IRMS (Finnigan MAT, Bremen, Germany). Recovery is calculated as ^13C divided by the dose of ^13C administered. The amount of excess ^13C in breath is a measure of residual fatty acid oxidation capacity in subjects with disorders of long-chain fatty acid oxidation.
In some embodiments, improvements in fatty acid oxidation in subjects with a FAOD that are treated with a PPARδ agonist compound described herein (e.g. Compound 1, or a pharmaceutically acceptable salt thereof) are measured with a suitable ^13CO2 breath sample test. In some embodiments, a suitable ^13CO2 breath sample test comprises the steps of: 1) providing the subject a meal comprising ^13C-enriched fatty acid(s); 2) administering to the subject a PPARδ agonist compound, or a pharmaceutically acceptable salt thereof, after the consumption of the meal; and 3) collecting breath samples from the subject at regular intervals and measuring the relative amount of ^13CO2 to ^12CO2 in the breath samples. In some embodiments, the breath samples are collected about every hour. In some embodiments, the meal is enriched with a 13C labeled fatty acid, wherein the fatty acid is butyric acid, caproic acid, caprylic acid, capric acid, lauric acid, myristic acid, palmitic acid, stearic acid, arachidic acid, behenic acid, lignoceric acid, caproleic acid, lauroleic acid, myristoleic acid, palmitoleic acid, oleic acid, elaidic acid, vaccenic acid, gadoleic acid, erucic acid, brassidic acid, nervonic acid, linoleic acid, alpha-linolenic acid, gamma-linolenic acid, columbinic acid, stearidonic acid, mead acid, dihomo-γ-linolenic acid, arachidonic acid, eicosapentaenoic acid, docosapentaenoic acid, or docosahexaenoic acid.
A non-limiting example of a fatty acid oxidation disorder (FAOD) clinical trial in humans is described below. […]

activity on LXRα [1]: did not show any
VLCAD enzymatic activity [2]: increased
SMILES: Cc1cc(OC/C=C(/c2ccc(F)cc2)c2ccc(C#CCN3CCOCC3)cc2)ccc1OCC(=O)O [Compound 1, (E)-[4-[3-(4-Fluorophenyl)-3-[4-[3-(morpholin-4-yl)propynyl]phenyl]allyloxy]-2-methyl-phenoxy]acetic acid]
exercise capacity ([3]; 50 mg once daily for 12 weeks): Improvements
exhaled 13CO2 ([3]; 50 mg once daily for 12 weeks): trend towards increases
heart rate during the last ten minutes of exercise ([3]; 50 mg once daily for 12 weeks): decreases
distance walked during a 12-minute walk test ([3]; 50 mg once daily for 12 weeks, FIG. 1): increase
tolerability ([3]; subjects that participated in the study): well tolerated
